Where a name gives a salt, the structure may show the parent alone. A value given as a limit tells only on which side of the number the result lay.

One assay addresses T1, TYRO3 (Homo sapiens, UniProt Q06418).
T1 sequence (Q06418 41-890): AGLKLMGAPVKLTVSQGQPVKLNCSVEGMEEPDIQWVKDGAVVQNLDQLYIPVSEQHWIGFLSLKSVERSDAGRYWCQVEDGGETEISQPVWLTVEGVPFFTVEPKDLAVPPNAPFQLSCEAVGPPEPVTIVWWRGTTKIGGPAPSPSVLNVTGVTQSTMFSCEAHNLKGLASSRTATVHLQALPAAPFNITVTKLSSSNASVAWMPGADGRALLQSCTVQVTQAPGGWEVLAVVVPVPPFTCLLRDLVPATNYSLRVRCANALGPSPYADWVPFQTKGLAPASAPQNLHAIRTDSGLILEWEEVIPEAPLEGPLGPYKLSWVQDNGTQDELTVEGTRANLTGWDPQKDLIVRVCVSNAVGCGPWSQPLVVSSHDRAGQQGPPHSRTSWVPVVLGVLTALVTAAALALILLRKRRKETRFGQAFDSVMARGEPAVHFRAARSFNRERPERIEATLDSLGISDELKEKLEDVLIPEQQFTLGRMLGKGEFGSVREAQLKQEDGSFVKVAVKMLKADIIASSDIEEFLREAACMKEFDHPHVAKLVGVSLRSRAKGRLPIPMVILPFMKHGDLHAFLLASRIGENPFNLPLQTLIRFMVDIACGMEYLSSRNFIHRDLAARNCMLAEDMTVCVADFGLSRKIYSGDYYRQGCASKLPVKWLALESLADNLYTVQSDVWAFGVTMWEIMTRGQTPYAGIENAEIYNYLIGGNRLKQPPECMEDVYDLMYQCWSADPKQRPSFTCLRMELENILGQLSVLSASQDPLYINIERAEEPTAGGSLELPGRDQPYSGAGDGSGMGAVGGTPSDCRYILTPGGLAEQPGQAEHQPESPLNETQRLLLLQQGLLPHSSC
Kind of assay: TR-FRET kinase activity assay, TYRO3. Type of assay: biochemical. As to conditions: ATP at Km, 60 minutes. In short, it runs like this: (§1)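 Recombinant human kinases, fluorescent peptide substrate, ATP at Km; 1 h RT, pH 7.5. EDTA-quenched, Eu antibody added, TR-FRET read; IC50 determined.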
On the technique in general: TR-FRET usually uses a lanthanide donor and a delayed reading to cut background.

In another assay the target is T2, FLT3 (Homo sapiens, UniProt P36888).
T2 sequence (P36888 27-993): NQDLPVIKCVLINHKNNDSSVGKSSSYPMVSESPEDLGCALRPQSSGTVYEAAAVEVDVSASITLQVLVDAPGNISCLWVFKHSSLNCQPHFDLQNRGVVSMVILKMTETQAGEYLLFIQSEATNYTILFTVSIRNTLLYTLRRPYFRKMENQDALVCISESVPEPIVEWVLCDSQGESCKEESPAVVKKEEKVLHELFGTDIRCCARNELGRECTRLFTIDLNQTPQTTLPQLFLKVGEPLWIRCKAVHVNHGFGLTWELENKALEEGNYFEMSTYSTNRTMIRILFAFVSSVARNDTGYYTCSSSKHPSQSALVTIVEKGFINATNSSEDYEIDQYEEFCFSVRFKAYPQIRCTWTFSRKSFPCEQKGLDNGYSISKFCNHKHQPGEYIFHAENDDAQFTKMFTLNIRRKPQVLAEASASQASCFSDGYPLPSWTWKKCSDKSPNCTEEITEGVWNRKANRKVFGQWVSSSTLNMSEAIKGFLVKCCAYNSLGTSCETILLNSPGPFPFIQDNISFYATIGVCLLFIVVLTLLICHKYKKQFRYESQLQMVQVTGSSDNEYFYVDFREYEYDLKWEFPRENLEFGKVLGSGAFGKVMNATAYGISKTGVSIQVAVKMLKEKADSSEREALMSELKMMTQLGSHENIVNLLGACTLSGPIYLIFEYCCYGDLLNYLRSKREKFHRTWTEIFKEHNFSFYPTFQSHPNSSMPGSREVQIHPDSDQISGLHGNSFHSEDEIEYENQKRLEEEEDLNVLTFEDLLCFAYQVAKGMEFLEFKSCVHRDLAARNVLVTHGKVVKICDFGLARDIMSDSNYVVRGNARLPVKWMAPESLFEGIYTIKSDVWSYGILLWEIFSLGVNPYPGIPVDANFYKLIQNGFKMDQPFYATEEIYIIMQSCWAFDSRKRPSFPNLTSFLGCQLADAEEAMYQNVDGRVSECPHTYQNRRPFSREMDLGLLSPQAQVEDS
Kind of assay: TR-FRET kinase activity assay, FLT3. The format is biochemical. Particulars: ATP at Km, 60 minutes. In short, it runs like this:
as §1

Broadly, the IC50 is the concentration that inhibits the measured activity by half. The low end stands for inhibition by little substance, the high end for a need for much substance. In the case of `CNC(=O)c1cncc(-c2cc([C@H]3CC[C@H](O)CC3)n3nc(N[C@@H](C)CC(F)(F)F)ncc23)c1` [Compound 304], the IC50 against TYRO3 is ≤ 100 nM; at FLT3 it was 1000 to 10000 nM.

Regarding `COC[C@H](C)Nc1ncc2c(-c3cnn(C(C)(C)C(=O)N4C[C@H](C)O[C@@H](C)C4)c3)cc([C@H]3CC[C@H](O)CC3)n2n1` [Compound 328], the figures for the IC50 against TYRO3 and on FLT3 were ≤ 100 nM and 1000 to 10000 nM, respectively.

On to `CNS(=O)(=O)c1cncc(-c2cc([C@H]3CC[C@H](O)CC3)n3nc(N[C@@H](C)CC(F)(F)F)ncc23)c1` [Compound 278], for which the figures for the IC50 against TYRO3 and on FLT3 were ≤ 100 nM and 100 to 1000 nM, respectively.

Consider `CNC(=O)C(C)(C)n1cc(-c2cc([C@H]3CC[C@H](O)CC3)n3nc(N[C@@H](C)COC)ncc23)cn1` [Compound 295], for which the half-maximal inhibitory concentration (IC50) is ≤ 100 nM on TYRO3 and 1000 to 10000 nM against FLT3.

As to `COC[C@H](C)Nc1ncc2c(-c3ccnc(N4CCNC(=O)C4)c3)cc([C@H]3CC[C@H](O)CC3)n2n1` [Compound 340], the IC50 was ≤ 100 nM against TYRO3 and 100 to 1000 nM on FLT3.

As for `CNC(=NC#N)N[C@H]1CC[C@H](c2cc(-c3ccc(CN4CCOCC4)cc3)c3cnc(N[C@@H](C)COC)nn32)CC1` [Compound 307], the half-inhibitory concentration (IC50) at TYRO3 and at FLT3 was ≤ 100 nM each time.

Take `COC[C@H](C)Nc1ncc2c(-c3cnn(CCS(C)(=O)=O)c3)cc([C@H]3CC[C@H](O)CC3)n2n1` [Compound 280]: the figures for the half-maximal inhibitory concentration (IC50) on TYRO3 and on FLT3 were ≤ 100 nM and 100 to 1000 nM, respectively.

Regarding `CC(CC(F)(F)F)Nc1ncc2c(-c3cncc(S(C)(=O)=O)c3)cc(C3CCC(O)CC3)n2n1` (centres unmarked) [Compound 273], the IC50 is ≤ 100 nM at TYRO3 and 100 to 1000 nM on FLT3.

For `COC[C@H](C)Nc1ncc2c(-c3ccnc(N4CCCC4)c3)cc([C@H]3CC[C@H](O)CC3)n2n1` [Compound 339], the half-maximal inhibitory concentration (IC50) at TYRO3 was ≤ 100 nM; on FLT3 it was 100 to 1000 nM.

Take `COC[C@H](C)Nc1ncc2c(-c3cnn(Cc4ccc(S(C)(=O)=O)cc4)c3)cc([C@H]3CC[C@H](O)CC3)n2n1` [Compound 314]: the IC50 at TYRO3 and at FLT3 was ≤ 100 nM each time.

On to `COC[C@H](C)Nc1ncc2c(-c3cnn(C4CCS(=O)(=O)CC4)c3)cc([C@H]3CC[C@H](O)CC3)n2n1` [Compound 323], for which the 50% inhibitory concentration (IC50) on TYRO3 is ≤ 100 nM; against FLT3, 100 to 1000 nM.

As to `COC[C@H](C)Nc1ncc2c(-c3cnn(Cc4nc(C)no4)c3)cc([C@H]3CC[C@H](O)CC3)n2n1` [Compound 292], the IC50 is ≤ 100 nM at TYRO3 and 100 to 1000 nM at FLT3.

`CNS(=O)(=O)c1cncc(-c2cc([C@H]3CC[C@H](O)CC3)n3nc(N[C@@H](C)COC)ncc23)c1` [Compound 272]: the IC50 at TYRO3 is ≤ 100 nM; against FLT3 it was 100 to 1000 nM.

Turning to `COC[C@H](C)Nc1ncc2c(-c3cnn(C4CC(C(=O)OC)C4)c3)cc([C@H]3CC[C@H](O)CC3)n2n1` (some centres unmarked) [Compound 330], the half-maximal inhibitory concentration (IC50) against TYRO3 was ≤ 100 nM; at FLT3, 100 to 1000 nM.

Turning to `CNS(=O)(=O)c1ccc(-c2cc([C@H]3CC[C@H](O)CC3)n3nc(N[C@@H](C)COC)ncc23)cn1` [Compound 336], the IC50 at TYRO3 was ≤ 100 nM; against FLT3, 100 to 1000 nM.

Regarding `Cc1cc(-c2cc([C@H]3CC[C@H](O)CC3)n3nc(N[C@@H](C)COC(F)F)ncc23)ccn1` [Compound 313], the IC50 is ≤ 100 nM against TYRO3 and 100 to 1000 nM against FLT3.

Consider `CC[C@H](C)Nc1ncc2c(-c3ccc(CN4CCN(C)CC4)cc3)cc([C@H]3CC[C@H](O)CC3)n2n1` [Compound 118], for which the IC50 at TYRO3 and against FLT3 was ≤ 100 nM throughout.

As for `C[C@@H](CC(F)(F)F)Nc1ncc2c(-c3cn[nH]c3)cc([C@H]3CC[C@H](O)CC3)n2n1` [Compound 276], the IC50 is ≤ 100 nM on TYRO3 and 100 to 1000 nM against FLT3.

With `COC[C@H](C)Nc1ncc2c(-c3cnn(C4CN(CCC(F)(F)F)C4)c3)cc([C@H]3CC[C@H](O)CC3)n2n1` [Compound 291], the values for the half-inhibitory concentration (IC50) against TYRO3 and on FLT3 were ≤ 100 nM and 100 to 1000 nM, respectively.

`C[C@@H](CC(F)(F)F)Nc1ncc2c(-c3ccc(S(C)(=O)=O)nc3)cc([C@H]3CC[C@H](O)CC3)n2n1` [Compound 297]: the IC50 against TYRO3 and at FLT3 was ≤ 100 nM throughout.

On to `COC[C@H](C)Nc1ncc2c(-c3cnn(C(C)(C)C(=O)N4CCC5(COC5)C4)c3)cc([C@H]3CC[C@H](O)CC3)n2n1` [Compound 318], for which the IC50 at TYRO3 was ≤ 100 nM; against FLT3, 1000 to 10000 nM.

Consider `C[C@@H](CC(F)(F)F)Nc1ncc2c(-c3cncc(C(=O)N(C)C)c3)cc([C@H]3CC[C@H](O)CC3)n2n1` [Compound 310], for which the IC50 on TYRO3 was ≤ 100 nM; against FLT3, 100 to 1000 nM.

On to `Cc1nnc(Cn2cc(-c3cc([C@H]4CC[C@H](O)CC4)n4nc(N[C@@H](C)COC(F)F)ncc34)cn2)o1` [Compound 312], for which the IC50 at TYRO3 and against FLT3 was ≤ 100 nM throughout.

On to `COC[C@H](C)Nc1ncc2c(-c3cnn(Cc4cncc(C)n4)c3)cc([C@H]3CC[C@H](O)CC3)n2n1` [Compound 329], for which the values for the half-maximal inhibitory concentration (IC50) against TYRO3 and on FLT3 were ≤ 100 nM and 100 to 1000 nM, respectively.

For the molecule `COC[C@H](C)Nc1ncc2c(-c3cc(C)nc(C)c3)cc([C@H]3CC[C@H](O)CC3)n2n1` [Compound 308], the IC50 at TYRO3 was ≤ 100 nM; on FLT3, 1000 to 10000 nM.

Regarding `COC[C@H](C)Nc1ncc2c(-c3cnn(C(C)(C)C(=O)C4C[C@H]5COC[C@H]5C4)c3)cc([C@H]3CC[C@H](O)CC3)n2n1` (some centres unmarked) [Compound 319], the values for the IC50 against TYRO3 and at FLT3 were ≤ 100 nM and 1000 to 10000 nM, respectively.

Regarding `CNC(=O)c1ccc(-c2cc([C@H]3CC[C@H](O)CC3)n3nc(N[C@@H](C)COC)ncc23)cn1` [Compound 317], the IC50 against TYRO3 and against FLT3 was ≤ 100 nM throughout.

As to `CCCCC[C@H](C)Nc1ncc2c(C3CCNCC3)cc([C@H]3CC[C@H](O)CC3)n2n1` [Compound 116, (1S,4r)-4-(2-((S)-heptan-2-ylamino)-5-(piperidin-4-yl)pyrrolo[2,1-f][1,2,4]triazin-7-yl)cyclohexanol hydrochloride], the IC50 was ≤ 100 nM on TYRO3 and 100 to 1000 nM on FLT3.

As to `COC[C@H](C)Nc1ncc2c(-c3cnn(C4CN(C(=O)C5COC5)C4)c3)cc([C@H]3CC[C@H](O)CC3)n2n1` [Compound 293], the IC50 against TYRO3 is ≤ 100 nM; against FLT3, 100 to 1000 nM.

As for `COC[C@H](C)Nc1ncc2c(-c3cnn([C@@H]4CCNC4=O)c3)cc([C@H]3CC[C@H](O)CC3)n2n1` [Compound 315], the IC50 on TYRO3 was ≤ 100 nM; at FLT3 it was 100 to 1000 nM.

Turning to `COC[C@H](C)Nc1ncc2c(-c3ccnc(OC(C)C)c3)cc([C@H]3CC[C@H](O)CC3)n2n1` [Compound 343], the IC50 on TYRO3 is ≤ 100 nM; against FLT3, 1000 to 10000 nM.

Turning to `COC[C@H](C)Nc1ncc2c(-c3cnn(Cc4ccnnc4)c3)cc([C@H]3CC[C@H](O)CC3)n2n1` [Compound 281], the half-maximal inhibitory concentration (IC50) at TYRO3 and against FLT3 was ≤ 100 nM in each case.

For `CNC(=O)c1ncc(-c2cc([C@H]3CC[C@H](O)CC3)n3nc(N[C@@H](C)COC)ncc23)cn1` [Compound 334], the IC50 on TYRO3 is ≤ 100 nM; against FLT3 it was 1000 to 10000 nM.

Consider `CCCCC[C@H](C)Nc1ncc2c(N3CCNCC3)cc([C@H]3CC[C@H](O)CC3)n2n1` [Compound 114], for which the values for the IC50 at TYRO3 and against FLT3 were ≤ 100 nM and 100 to 1000 nM, respectively.

(Values after patent publication US11040981B2, “Pyrrolotriazine compounds and methods of inhibiting TAM kinases” (Syros Pharmaceuticals, Inc., priority 2017, dated 2021).)
